Data published in ChEMBL document CHEMBL1201862, “PubChem BioAssay data set” (2004).
The source made the active and inactive calls.

Tests used:
[1] = Fluorescence-based biochemical high throughput screening dose response assay to identify inhibitors of Crimean-Congo Hemorrhagic Fever (CCHF) viral ovarian tumor domain protease (vOTU): Pep-AMC substrate.
[2] = Luminescence Cell-Based Dose Response HTS to Identify Inhibitors of 5'UTR Stem-Loop Driven Prion Protein mRNA Translation in H4 Neuroglioblastoma Cells. [Related pubchem assays: 1827 (Project Summary), 1813 (Primary HTS)]; type: functional
[3] = molecular target: cAMP-dependent protein kinase catalytic subunit alpha (Homo sapiens, UniProt P17612); type: functional
[4] = molecular target: Casein kinase I isoform delta (Homo sapiens, UniProt P48730); type: functional;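 also: measured as one member (CSNK1D) of a kinome panel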
[5] = molecular target: Non-receptor tyrosine-protein kinase TYK2 (Homo sapiens, UniProt P29597); type: functional
Aurora kinase A = Aurora kinase A (Homo sapiens, UniProt O14965); type: functional;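 also: value from the Navigating the Kinome kinase panel profiling, panel entry STK6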
[6] = molecular target: Leucine-rich repeat serine/threonine-protein kinase 2 (Homo sapiens, UniProt Q5S007); type: functional;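 also: value from a broad kinome-wide panel profiling study in which LRRK2 was one of the kinases tested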
[7] = molecular target: MAP kinase-activated protein kinase 2 (Homo sapiens, UniProt P49137); type: functional;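 also: measured as one member of a kinome-wide kinase panel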
[8] = molecular target: Mitogen-activated protein kinase kinase kinase kinase 5 (Homo sapiens, UniProt Q9Y4K4); type: functional;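 also: measured as one member of a kinome-spanning kinase panel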
[9] = molecular target: Megakaryocyte-associated tyrosine-protein kinase (Homo sapiens, UniProt P42679); type: functional;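 also: affinity measured as one member of a kinase panel (Navigating the Kinome) against MATK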
[10] = molecular target: Death-associated protein kinase 3 (Homo sapiens, UniProt O43293); type: functional;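 also: measured as one member of a kinome-wide profiling panel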
[11] = molecular target: Mitogen-activated protein kinase kinase kinase kinase 4 (Homo sapiens, UniProt O95819); type: functional
[12] = molecular target: Protein kinase C iota type (Homo sapiens, UniProt P41743); type: functional;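 also: measured within a kinome-wide kinase panel, PRKCI as panel member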
[13] = molecular target: Tyrosine-protein kinase Fyn (Homo sapiens, UniProt P06241); type: functional
[14] = molecular target: Cell division cycle 7-related protein kinase (Homo sapiens, UniProt O00311); type: functional;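 also: value obtained from a kinome-wide kinase panel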
[15] = molecular target: Serine/threonine-protein kinase D3 (Homo sapiens, UniProt O94806); type: functional;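 also: determined within a kinase panel screen, with PRKCN as the panel member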
[16] = molecular target: Tyrosine-protein kinase ABL1 (Homo sapiens, UniProt P00519); type: functional
[17] = molecular target: Phosphorylase b kinase gamma catalytic chain, liver/testis isoform (Homo sapiens, UniProt P15735); type: functional;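 also: PHKG2 measured as one member of a kinome-wide kinase panel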
[18] = molecular target: Proto-oncogene tyrosine-protein kinase Src (Homo sapiens, UniProt P12931); type: functional;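 also: SRC entry within a kinome-wide kinase profiling panel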
[19] = molecular target: Serine/threonine-protein kinase TBK1 (Homo sapiens, UniProt Q9UHD2); test: Navigating the Kinome. Panel member name: TBK1; type: functional
[20] = molecular target: Serine/threonine-protein kinase pim-3 (Homo sapiens, UniProt Q86V86); type: functional;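 also: value obtained as one member of a broad kinase panel profiling effort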
[21] = molecular target: Lymphokine-activated killer T-cell-originated protein kinase (Homo sapiens, UniProt Q96KB5); type: functional;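 also: value comes from a kinase panel screen in which TOPK was one of the panel members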
[22] = molecular target: BDNF/NT-3 growth factors receptor (Homo sapiens, UniProt Q16620); type: functional;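 also: NTRK2 measured as one member of a broad kinome-wide kinase profiling panel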
[23] = molecular target: Cyclin-dependent kinase 7 (Homo sapiens, UniProt P50613); type: functional;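 also: value comes from a kinome-wide kinase profiling panel in which CDK7 is one member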
[24] = molecular target: Tyrosine-protein kinase Lyn (Homo sapiens, UniProt P07948); type: functional;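 also: lyn as one member of a kinase panel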
[25] = molecular target: Tyrosine-protein kinase Fer (Homo sapiens, UniProt P16591); type: functional;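 also: FER tested as one member of a kinome panel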
[26] = molecular target: Hepatocyte growth factor receptor (Homo sapiens, UniProt P08581); type: functional;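 also: kinase panel profiling across the kinome, with MET as the panel member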
[27] = molecular target: Mitogen-activated protein kinase 9 (Homo sapiens, UniProt P45984); type: functional;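 also: value from a kinome panel profiling assay, MAPK9 panel entry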
Ephrin type-A receptor 2 = Ephrin type-A receptor 2 (Homo sapiens, UniProt P29317); type: functional;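 also: EPHA2 tested as one member of a kinome-wide kinase panel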
[28] = molecular target: Serine/threonine-protein kinase PLK4 (Homo sapiens, UniProt O00444); type: functional;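 also: PLK4 measured as one member of a kinome-wide kinase profiling panel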
[29] = molecular target: RAC-gamma serine/threonine-protein kinase (Homo sapiens, UniProt Q9Y243); type: functional
[30] = molecular target: Serine/threonine-protein kinase pim-1 (Homo sapiens, UniProt P11309); type: functional
[31] = molecular target: Mitogen-activated protein kinase kinase kinase 20 (Homo sapiens, UniProt Q9NYL2); type: functional
[32] = molecular target: Interleukin-1 receptor-associated kinase 4 (Homo sapiens, UniProt Q9NWZ3); type: functional
[33] = molecular target: 3-phosphoinositide-dependent protein kinase 1 (Homo sapiens, UniProt O15530); type: functional;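 also: value comes from the Navigating the Kinome panel, PDPK1 member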
[34] = molecular target: Cyclin-dependent kinase 1 (Homo sapiens, UniProt P06493); type: functional;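 also: Kinome-wide panel profiling, with the target listed as panel member CDC2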
[35] = molecular target: Serine/threonine-protein kinase PAK 1 (Homo sapiens, UniProt Q13153); type: functional
[36] = molecular target: Inhibitor of nuclear factor kappa-B kinase subunit epsilon (Homo sapiens, UniProt Q14164); test: Navigating the Kinome. Panel member name: IKBKE; type: functional
[37] = molecular target: Serine/threonine-protein kinase DCLK1 (Homo sapiens, UniProt O15075); type: functional;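 also: affinity for DCLK1 (listed as DCAMKL1) measured as one member of a kinome-wide kinase profiling panel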
[38] = molecular target: Protein kinase C zeta type (Homo sapiens, UniProt Q05513); type: functional;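 also: measured as one member of a broad kinase profiling panel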
HEK293 = test: inhibitors of LMP1-driven NF-kB reporter, dose response, cell-based, HEK293, luciferase, cherry-pick (AID 588343); type: functional; details: Homo sapiens
Caspase-3 = molecular target: T1, Caspase-3 (Homo sapiens, UniProt P42574); test: procaspase-3 activators, dose response, biochemical, absorbance (AID 489014)
T1 sequence (P42574 whole entry): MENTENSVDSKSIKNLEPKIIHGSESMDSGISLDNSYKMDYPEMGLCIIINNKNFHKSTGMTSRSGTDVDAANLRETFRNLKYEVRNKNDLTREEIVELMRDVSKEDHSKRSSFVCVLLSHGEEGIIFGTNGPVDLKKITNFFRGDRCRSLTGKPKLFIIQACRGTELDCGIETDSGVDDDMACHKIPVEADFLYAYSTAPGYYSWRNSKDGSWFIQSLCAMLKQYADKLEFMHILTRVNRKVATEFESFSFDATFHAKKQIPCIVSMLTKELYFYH

Sequence of Cyclin-dependent kinase 1 (P06493 whole entry): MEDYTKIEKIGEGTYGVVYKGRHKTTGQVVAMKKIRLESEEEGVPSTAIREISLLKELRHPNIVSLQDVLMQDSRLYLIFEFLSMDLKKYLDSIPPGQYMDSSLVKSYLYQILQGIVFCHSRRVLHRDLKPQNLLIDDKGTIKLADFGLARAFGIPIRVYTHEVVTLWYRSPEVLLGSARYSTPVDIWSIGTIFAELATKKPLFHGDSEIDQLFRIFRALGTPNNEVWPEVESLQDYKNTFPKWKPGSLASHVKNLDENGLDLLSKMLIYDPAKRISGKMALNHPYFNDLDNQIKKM
Sequence of Serine/threonine-protein kinase PLK4 (O00444 whole entry): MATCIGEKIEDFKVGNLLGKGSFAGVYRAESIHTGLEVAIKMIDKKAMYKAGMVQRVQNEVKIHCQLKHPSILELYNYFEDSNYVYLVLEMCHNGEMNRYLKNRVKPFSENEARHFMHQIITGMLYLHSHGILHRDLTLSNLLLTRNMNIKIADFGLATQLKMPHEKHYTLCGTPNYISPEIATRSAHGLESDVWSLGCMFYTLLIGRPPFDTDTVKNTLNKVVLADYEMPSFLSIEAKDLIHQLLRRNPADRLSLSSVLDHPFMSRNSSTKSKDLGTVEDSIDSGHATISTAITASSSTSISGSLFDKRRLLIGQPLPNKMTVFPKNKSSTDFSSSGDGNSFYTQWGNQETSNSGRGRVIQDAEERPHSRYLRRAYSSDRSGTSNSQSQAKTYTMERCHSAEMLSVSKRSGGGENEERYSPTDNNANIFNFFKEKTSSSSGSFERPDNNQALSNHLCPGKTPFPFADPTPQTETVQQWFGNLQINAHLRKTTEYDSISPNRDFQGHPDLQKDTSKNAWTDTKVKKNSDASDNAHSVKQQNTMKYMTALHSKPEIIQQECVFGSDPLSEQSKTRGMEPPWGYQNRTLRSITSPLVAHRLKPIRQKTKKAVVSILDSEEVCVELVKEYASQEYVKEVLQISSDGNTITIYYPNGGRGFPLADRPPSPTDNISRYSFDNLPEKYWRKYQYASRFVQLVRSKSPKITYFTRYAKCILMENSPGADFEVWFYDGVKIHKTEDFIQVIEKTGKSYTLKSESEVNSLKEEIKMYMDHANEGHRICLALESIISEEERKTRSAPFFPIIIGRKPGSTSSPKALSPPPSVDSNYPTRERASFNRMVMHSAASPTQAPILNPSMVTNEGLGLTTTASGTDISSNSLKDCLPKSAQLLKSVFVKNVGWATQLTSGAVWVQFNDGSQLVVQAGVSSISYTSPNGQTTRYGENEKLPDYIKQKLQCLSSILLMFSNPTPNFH
Sequence of Serine/threonine-protein kinase PAK 1 (Q13153 whole entry): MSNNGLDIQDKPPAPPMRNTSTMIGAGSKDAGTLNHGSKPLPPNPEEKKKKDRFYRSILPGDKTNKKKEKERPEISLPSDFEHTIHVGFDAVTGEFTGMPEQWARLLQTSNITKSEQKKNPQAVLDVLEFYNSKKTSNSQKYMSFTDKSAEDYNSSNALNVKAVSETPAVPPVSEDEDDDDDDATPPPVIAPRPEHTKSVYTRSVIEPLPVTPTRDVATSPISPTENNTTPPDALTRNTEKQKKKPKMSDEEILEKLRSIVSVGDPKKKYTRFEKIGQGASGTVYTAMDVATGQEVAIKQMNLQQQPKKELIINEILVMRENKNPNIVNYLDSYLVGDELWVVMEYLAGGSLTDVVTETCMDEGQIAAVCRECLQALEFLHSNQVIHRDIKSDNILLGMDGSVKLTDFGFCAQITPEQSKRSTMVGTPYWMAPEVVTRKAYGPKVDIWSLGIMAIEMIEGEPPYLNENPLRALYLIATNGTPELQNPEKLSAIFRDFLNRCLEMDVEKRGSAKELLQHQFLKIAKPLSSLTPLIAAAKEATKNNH
Sequence of Protein kinase C iota type (P41743 whole entry): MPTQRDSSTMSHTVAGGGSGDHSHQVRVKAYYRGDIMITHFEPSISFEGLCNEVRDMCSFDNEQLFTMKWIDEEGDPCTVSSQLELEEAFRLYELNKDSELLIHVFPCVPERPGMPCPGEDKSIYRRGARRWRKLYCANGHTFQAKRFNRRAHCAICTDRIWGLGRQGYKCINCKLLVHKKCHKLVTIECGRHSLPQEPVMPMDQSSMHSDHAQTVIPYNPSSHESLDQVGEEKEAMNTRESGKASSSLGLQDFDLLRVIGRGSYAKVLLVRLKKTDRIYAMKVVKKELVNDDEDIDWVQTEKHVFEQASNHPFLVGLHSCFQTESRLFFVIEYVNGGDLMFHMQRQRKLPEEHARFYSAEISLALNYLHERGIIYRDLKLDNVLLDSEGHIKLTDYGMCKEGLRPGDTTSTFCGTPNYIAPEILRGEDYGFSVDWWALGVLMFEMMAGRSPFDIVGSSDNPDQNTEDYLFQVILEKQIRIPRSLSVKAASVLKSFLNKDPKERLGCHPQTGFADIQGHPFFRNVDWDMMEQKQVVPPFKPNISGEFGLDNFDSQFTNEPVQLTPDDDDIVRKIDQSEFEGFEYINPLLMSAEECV
Sequence of Serine/threonine-protein kinase D3 (O94806 whole entry): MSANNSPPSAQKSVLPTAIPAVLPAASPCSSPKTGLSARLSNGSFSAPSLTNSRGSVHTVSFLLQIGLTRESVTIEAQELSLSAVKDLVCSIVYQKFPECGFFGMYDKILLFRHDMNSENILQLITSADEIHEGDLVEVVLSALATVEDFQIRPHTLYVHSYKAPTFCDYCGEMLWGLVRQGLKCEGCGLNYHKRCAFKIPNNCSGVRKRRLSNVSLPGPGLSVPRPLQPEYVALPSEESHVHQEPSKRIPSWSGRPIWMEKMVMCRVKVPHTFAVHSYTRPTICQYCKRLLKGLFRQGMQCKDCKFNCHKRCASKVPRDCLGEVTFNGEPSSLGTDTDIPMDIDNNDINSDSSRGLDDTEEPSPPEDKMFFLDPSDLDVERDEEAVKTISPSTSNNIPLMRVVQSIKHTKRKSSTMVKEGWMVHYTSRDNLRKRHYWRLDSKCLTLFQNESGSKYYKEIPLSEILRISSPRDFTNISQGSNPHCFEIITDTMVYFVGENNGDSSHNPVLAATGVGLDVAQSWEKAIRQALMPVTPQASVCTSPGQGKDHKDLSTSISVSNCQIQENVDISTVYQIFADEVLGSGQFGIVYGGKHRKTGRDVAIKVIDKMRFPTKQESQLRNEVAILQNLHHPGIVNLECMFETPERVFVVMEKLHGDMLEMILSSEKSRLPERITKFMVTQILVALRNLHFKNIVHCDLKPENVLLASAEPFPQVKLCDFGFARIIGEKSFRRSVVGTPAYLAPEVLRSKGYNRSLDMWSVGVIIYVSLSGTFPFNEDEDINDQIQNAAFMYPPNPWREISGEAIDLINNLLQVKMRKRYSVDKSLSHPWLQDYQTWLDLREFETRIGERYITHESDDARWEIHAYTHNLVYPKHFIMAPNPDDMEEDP
Sequence of Megakaryocyte-associated tyrosine-protein kinase (P42679 whole entry): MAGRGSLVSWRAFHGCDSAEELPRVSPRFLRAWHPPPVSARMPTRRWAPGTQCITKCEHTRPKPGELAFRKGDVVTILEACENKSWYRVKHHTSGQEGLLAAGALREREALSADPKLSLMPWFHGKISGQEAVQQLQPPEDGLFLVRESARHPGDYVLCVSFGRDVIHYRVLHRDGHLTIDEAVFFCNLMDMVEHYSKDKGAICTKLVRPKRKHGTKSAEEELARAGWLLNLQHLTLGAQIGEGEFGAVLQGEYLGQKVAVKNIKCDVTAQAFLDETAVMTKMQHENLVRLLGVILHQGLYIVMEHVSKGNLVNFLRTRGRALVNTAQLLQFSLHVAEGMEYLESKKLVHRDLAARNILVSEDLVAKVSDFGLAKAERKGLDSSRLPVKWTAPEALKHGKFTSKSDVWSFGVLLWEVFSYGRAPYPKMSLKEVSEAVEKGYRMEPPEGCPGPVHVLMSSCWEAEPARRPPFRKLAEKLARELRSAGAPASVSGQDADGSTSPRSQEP
Sequence of Tyrosine-protein kinase ABL1 (P00519 whole entry, canonical isoform): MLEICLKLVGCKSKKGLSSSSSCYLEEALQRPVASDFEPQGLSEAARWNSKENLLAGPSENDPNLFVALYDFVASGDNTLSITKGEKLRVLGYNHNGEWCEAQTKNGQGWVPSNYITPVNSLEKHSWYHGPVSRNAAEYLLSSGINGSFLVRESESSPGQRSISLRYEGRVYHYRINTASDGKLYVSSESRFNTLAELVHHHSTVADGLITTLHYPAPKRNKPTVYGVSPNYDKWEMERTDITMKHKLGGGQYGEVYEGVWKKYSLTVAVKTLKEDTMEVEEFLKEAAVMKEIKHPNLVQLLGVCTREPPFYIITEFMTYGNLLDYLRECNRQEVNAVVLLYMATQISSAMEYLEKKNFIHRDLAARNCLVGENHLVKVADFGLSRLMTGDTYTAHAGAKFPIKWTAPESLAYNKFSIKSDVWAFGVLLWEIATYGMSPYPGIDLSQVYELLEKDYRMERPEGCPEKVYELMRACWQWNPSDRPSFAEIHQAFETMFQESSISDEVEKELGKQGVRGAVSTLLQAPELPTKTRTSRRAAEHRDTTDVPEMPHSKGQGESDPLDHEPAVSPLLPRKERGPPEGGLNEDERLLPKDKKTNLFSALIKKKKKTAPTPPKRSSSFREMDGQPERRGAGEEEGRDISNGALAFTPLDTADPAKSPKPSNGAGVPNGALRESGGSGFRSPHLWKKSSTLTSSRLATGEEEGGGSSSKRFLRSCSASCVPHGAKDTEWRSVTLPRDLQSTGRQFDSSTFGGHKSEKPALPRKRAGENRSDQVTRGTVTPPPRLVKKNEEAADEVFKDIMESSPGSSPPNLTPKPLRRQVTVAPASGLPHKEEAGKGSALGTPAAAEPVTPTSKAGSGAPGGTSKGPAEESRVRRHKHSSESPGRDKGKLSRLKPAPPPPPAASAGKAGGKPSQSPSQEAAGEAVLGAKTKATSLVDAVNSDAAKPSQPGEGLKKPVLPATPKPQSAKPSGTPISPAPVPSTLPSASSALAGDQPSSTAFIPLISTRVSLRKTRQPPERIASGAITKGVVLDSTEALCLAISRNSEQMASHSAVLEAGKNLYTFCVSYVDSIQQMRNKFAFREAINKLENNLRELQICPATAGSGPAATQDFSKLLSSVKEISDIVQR

CC(C)N(C(=O)Nc1ccc2nsnc2c1)C(C)C
IC50 [1]: > 4.25 µM (active)

NS(=O)(=O)c1ccc(NC2=CC(=O)C(=O)c3ccccc32)cc1
EC50 [2]: 24.4 µM (active)

Clc1cc(-c2c[nH]c3ncccc23)nc(NC2CCCCC2)n1
Ki [3]: 0.251 µM (active)
Ki [4]: 0.0631 µM (active)
Ki [5]: > 2 µM (inactive)
Ki (Aurora kinase A): > 1.58 µM (inactive)
Ki [6]: > 2.51 µM (inactive)
Ki [7]: > 7.94 µM (inactive)
Ki [8]: > 2 µM (inactive)
Ki [9]: > 2 µM (inactive)
Ki [10]: 0.501 µM (active)
Ki [11]: 0.126 µM (active)
Ki [12]: > 5.01 µM (inactive)
Ki [13]: > 0.794 µM (inactive)
Ki [14]: 0.000501 µM (active)
Ki [15]: > 2 µM (inactive)
Ki [16]: > 0.631 µM (inactive)
Ki [17]: > 5.01 µM (inactive)
Ki [18]: > 2 µM (inactive)
Ki [19]: > 3.16 µM (inactive)
Ki [20]: > 7.94 µM (inactive)
Ki [21]: > 10 µM (inactive)
Ki [22]: 2 µM (active)
Ki [23]: > 6.31 µM (inactive)
Ki [24]: > 1.58 µM (inactive)
Ki [25]: 0.398 µM (active)
Ki [26]: > 3.16 µM (inactive)
Ki [27]: 3.16 µM (active)
Ki (Ephrin type-A receptor 2): > 3.16 µM (inactive)
Ki [28]: > 3.98 µM (inactive)
Ki [29]: > 10 µM (inactive)
Ki [30]: > 5.01 µM (inactive)
Ki [31]: > 7.94 µM (inactive)
Ki [32]: 0.158 µM (active)
Ki [33]: > 3.98 µM (inactive)
Ki [34]: 0.0316 µM (active)
Ki [35]: > 10 µM (inactive)
Ki [36]: > 3.16 µM (inactive)
Ki [37]: > 10 µM (inactive)
Ki [38]: > 7.94 µM (inactive)

O=C(N/N=C/c1ccc(O)cc1O)c1ccc(CN2C(=O)c3cccc4cccc2c34)cc1
AC50 (HEK293): 6.46 µM (active)
EC50 (Caspase-3): > 85.3 µM (inactive)
